According to the CheMixHub viscosity set:

Assay: xn = mol fraction of the nth substance listed

COC(=O)c1ccccc1 + CN(C)C=O
viscosity [mPa·s], 101.3 kPa
Settings | x2 = 0.1213 | x2 = 0.1914 | x2 = 0.2976 | x2 = 0.3961 | x2 = 0.5284 | x2 = 0.6218 | x2 = 0.7468 | x2 = 0.8028 | x2 = 0.9311
298.15 K | 1.74 | 1.644 | 1.507 | 1.388 | 1.239 | 1.141 | 1.02 | 0.969 | 0.86
303.15 K | 1.622 | 1.536 | 1.413 | 1.306 | 1.169 | 1.078 | 0.963 | 0.915 | 0.81
308.15 K | 1.524 | 1.447 | 1.334 | 1.235 | 1.107 | 1.022 | 0.913 | 0.867 | 0.764
313.15 K | 1.305 | 1.252 | 1.173 | 1.1 | 1.003 | 0.936 | 0.848 | 0.809 | 0.721

CCNCCO + CN(C)CCO
viscosity [mPa·s], 101.3 kPa
Settings | x1 = 0.0999 | x1 = 0.2001 | x1 = 0.3 | x1 = 0.4 | x1 = 0.4998 | x1 = 0.6001 | x1 = 0.7 | x1 = 0.8002 | x1 = 0.9
293.15 K | 3.88 | 4.63 | 5.5 | 6.48 | 7.55 | 8.66 | 9.82 | 10.97 | 12.14
303.15 K | 2.92 | 3.31 | 3.85 | 4.47 | 5.17 | 5.88 | 6.63 | 7.39 | 8.16
313.15 K | 2.18 | 2.42 | 2.8 | 3.22 | 3.71 | 4.24 | 4.78 | 5.32 | 5.84
323.15 K | 1.79 | 1.95 | 2.15 | 2.39 | 2.68 | 2.98 | 3.3 | 3.62 | 3.93

CC(C)OCCO + CO
298.15 K, 101.33 kPa
Settings | viscosity [mPa·s]
x1 = 0.012 | 0.569
x1 = 0.0276 | 0.602
x1 = 0.05 | 0.637
x1 = 0.0732 | 0.684
x1 = 0.1063 | 0.749
x1 = 0.1319 | 0.795
x1 = 0.1558 | 0.842
x1 = 0.1871 | 0.897
x1 = 0.2119 | 0.946
x1 = 0.2575 | 1.036
x1 = 0.2683 | 1.056
x1 = 0.3161 | 1.145
x1 = 0.3643 | 1.235
x1 = 0.412 | 1.324
x1 = 0.4685 | 1.415
x1 = 0.5152 | 1.485
x1 = 0.5447 | 1.529
x1 = 0.6149 | 1.624
x1 = 0.6869 | 1.719
x1 = 0.7416 | 1.789
x1 = 0.7775 | 1.832
x1 = 0.8335 | 1.912
x1 = 0.8955 | 1.975
x1 = 0.9189 | 2.003
x1 = 0.9415 | 2.032
x1 = 0.9701 | 2.064

CCOS(=O)(=O)[O-].CC[N+](CC)=C(N(C)C)N(C)C + CO
viscosity [mPa·s], 100 kPa
Settings | x1 = 0.1 | x1 = 0.1991 | x1 = 0.298 | x1 = 0.3949 | x1 = 0.4982 | x1 = 0.5999 | x1 = 0.6953 | x1 = 0.7999 | x1 = 0.9002
293.15 K | 1.785 | 4.501 | 9.381 | 18.38 | 32.98 | 53.59 | 80.2 | 115.6 | 153.4
298.15 K | 1.634 | 4.072 | 8.2 | 15.58 | 27.24 | 42.8 | 62.36 | 87.46 | 112.3
303.15 K | 1.504 | 3.661 | 7.163 | 13.38 | 22.82 | 34.85 | 49.55 | 67.85 | 86.71
308.15 K | 1.389 | 3.307 | 6.417 | 11.63 | 19.37 | 28.79 | 40.16 | 53.89 | 67.59
313.15 K | 1.287 | 3 | 5.724 | 10.18 | 16.65 | 24.17 | 33.08 | 43.49 | 53.73
318.15 K | 1.195 | 2.734 | 4.994 | 8.991 | 14.45 | 20.55 | 27.69 | 35.64 | 43.24
323.15 K | 1.113 | 2.5 | 4.58 | 7.999 | 12.64 | 17.68 | 23.46 | 29.74 | 35.49

COC(=O)c1ccccc1 + CO
viscosity [mPa·s], 101.33 kPa
Settings | x1 = 0.0499 | x1 = 0.0999 | x1 = 0.2 | x1 = 0.3001 | x1 = 0.4001 | x1 = 0.4999 | x1 = 0.5999 | x1 = 0.65 | x1 = 0.8001 | x1 = 0.9001
293.15 K | 0.653 | 0.721 | 0.86 | 0.997 | 1.133 | 1.263 | 1.395 | 1.461 | 1.673 | 1.834
298.15 K | 0.608 | 0.67 | 0.796 | 0.918 | 1.041 | 1.156 | 1.273 | 1.331 | 1.518 | 1.66
303.15 K | 0.568 | 0.625 | 0.738 | 0.849 | 0.958 | 1.062 | 1.167 | 1.22 | 1.387 | 1.511
308.15 K | 0.531 | 0.584 | 0.686 | 0.786 | 0.886 | 0.98 | 1.075 | 1.122 | 1.272 | 1.385
313.15 K | 0.499 | 0.547 | 0.64 | 0.732 | 0.822 | 0.907 | 0.993 | 1.036 | 1.173 | 1.275

CCOCCOCCOCC + COC(=O)OC
viscosity [mPa·s], 101.33 kPa
Settings | 298.15 K | 308.15 K | 318.15 K
x1 = 0.0109 | 0.604 | 0.532 | 0.48
x1 = 0.0541 | 0.641 | 0.563 | 0.502
x1 = 0.0935 | 0.677 | 0.593 | 0.523
x1 = 0.1383 | 0.718 | 0.624 | 0.546
x1 = 0.1877 | 0.76 | 0.654 | 0.571
x1 = 0.2422 | 0.808 | 0.689 | 0.604
x1 = 0.3409 | 0.886 | 0.752 | 0.651
x1 = 0.4435 | 0.959 | 0.811 | 0.697
x1 = 0.5274 | 1.021 | 0.855 | 0.727
x1 = 0.6085 | 1.072 | 0.894 | 0.761
x1 = 0.7154 | 1.136 | 0.942 | 0.798
x1 = 0.8183 | 1.189 | 0.986 | 0.831
x1 = 0.9068 | 1.229 | 1.019 | 0.857
x1 = 0.9643 | 1.258 | 1.037 | 0.872

c1ccc2c(c1)CCCC2 + COC(C)(C)C
303.15 K, 101 kPa
Settings | viscosity [mPa·s]
x2 = 0.1289 | 1.534
x2 = 0.1851 | 1.432
x2 = 0.2839 | 1.253
x2 = 0.3506 | 1.136
x2 = 0.4458 | 0.983
x2 = 0.5017 | 0.903
x2 = 0.6257 | 0.737
x2 = 0.7392 | 0.606
x2 = 0.8539 | 0.486
x2 = 0.9246 | 0.37

COC(=O)c1ccccc1 + COCCO
viscosity [mPa·s], 101 kPa
Settings | x2 = 0.0991 | x2 = 0.2001 | x2 = 0.3023 | x2 = 0.3992 | x2 = 0.4989 | x2 = 0.5981 | x2 = 0.699 | x2 = 0.7991 | x2 = 0.8983
298.15 K | 1.735 | 1.689 | 1.686 | 1.675 | 1.646 | 1.675 | 1.668 | 1.699 | 1.693
303.15 K | 1.571 | 1.523 | 1.524 | 1.511 | 1.478 | 1.508 | 1.5 | 1.525 | 1.522
308.15 K | 1.427 | 1.385 | 1.378 | 1.366 | 1.34 | 1.362 | 1.356 | 1.375 | 1.372

CCOC(=O)CCl + COc1ccccc1
viscosity [mPa·s], 101.3 kPa
Settings | x1 = 0.1012 | x1 = 0.2027 | x1 = 0.3 | x1 = 0.3936 | x1 = 0.4982 | x1 = 0.6022 | x1 = 0.6954 | x1 = 0.7934 | x1 = 0.8919
298.15 K | 0.983 | 0.987 | 0.989 | 0.996 | 1.004 | 1.019 | 1.033 | 1.049 | 1.072
303.15 K | 0.915 | 0.916 | 0.918 | 0.925 | 0.932 | 0.945 | 0.958 | 0.975 | 0.993
308.15 K | 0.847 | 0.847 | 0.848 | 0.853 | 0.861 | 0.871 | 0.884 | 0.901 | 0.915

COC(=O)c1ccccc1 + COc1ccccc1
viscosity [mPa·s], 100 kPa
Settings | x1 = 0.0898 | x1 = 0.1468 | x1 = 0.228 | x1 = 0.3145 | x1 = 0.4054 | x1 = 0.5056 | x1 = 0.6161 | x1 = 0.7316 | x1 = 0.8597
303.15 K | 0.974 | 1.038 | 1.101 | 1.187 | 1.234 | 1.307 | 1.391 | 1.48 | 1.572
308.15 K | 0.894 | 0.949 | 1.007 | 1.086 | 1.129 | 1.195 | 1.272 | 1.355 | 1.439
313.15 K | 0.8 | 0.85 | 0.902 | 0.972 | 1.012 | 1.074 | 1.144 | 1.22 | 1.301
